Results reported in PMC8571282 (Nature Communications, 2021).
Several values for one entry are separate records, joined by “and”; a condition that tells them apart may be missing. Equal values may be shown once. Read-outs that look alike come from different tables or passages of the source.

Experiments:
[1] = Single-dose plasma pharmacokinetics in ferrets; conditions: ferret plasma, analyte 441524 after IV '524, 20 mg/kg, 20 mg/kg; for AUC(0-t) / clearance / Cmax: plasma, iv; for AUC(0-t): AUClast; for clearance: Cl_obs
SARS-CoV-2 WA1/2020 [2] = format: in vivo, ferret (Mustela putorius furo); conditions: Fig 2g, 20 mg kg-1 b.i.d.; for Transform of Nasal lavage RNA copies/uL, Mean 2 (treated group mean): N 4; for Transform of Nasal lavage RNA copies/uL, Mean Diff. (Vehicle - treated): Šídák's multiple comparisons test
[3] = format: in vivo, ferret (Mustela putorius furo); design: Temperature, Mean Diff. (Vehicle - treated): unit not given here; conditions: for Bodyweight, Mean 2 (treated group mean) / Bodyweight, Mean Diff. (Vehicle - treated): Fig 2e; for Bodyweight, Mean 2 (treated group mean) / Bodyweight, Mean Diff. (Vehicle - treated) / Temperature, Mean 2 (treated group mean) / Temperature, Mean Diff. (Vehicle - treated): 20 mg kg-1 b.i.d.; for Bodyweight, Mean 2 (treated group mean) / Temperature, Mean 2 (treated group mean): N 4; for Bodyweight, Mean Diff. (Vehicle - treated) / Temperature, Mean Diff. (Vehicle - treated): Šídák's multiple comparisons test; for Temperature, Mean 2 (treated group mean) / Temperature, Mean Diff. (Vehicle - treated): Fig 2d; for Bodyweight, Mean 2 (treated group) / Bodyweight, Mean Diff. (Vehicle vs. treated): Fig 3e; for Bodyweight, Mean 2 (treated group) / Bodyweight, Mean Diff. (Vehicle vs. treated) / Temperature, Mean 2 (treated group) / Temperature, Mean Diff. (Vehicle vs. treated): 5 mg/kg, b.i.d.; for Temperature, Mean 2 (treated group) / Temperature, Mean Diff. (Vehicle vs. treated): Fig 3d
SARS-CoV-2 WA1/2020 [4] = format: in vivo, ferret (Mustela putorius furo); conditions: for Transform of Nasal lavage titer, Mean 2 (treated group) / Transform of Nasal lavage titer, Mean Diff. (Vehicle vs. treated): Fig 3b; for Transform of Nasal Lavage RNA copies, Mean 2 (treated group) / Transform of Nasal Lavage RNA copies, Mean Diff. (Vehicle vs. treated): Fig 3f, 5mg/kg b.i.d.

## N#CC1(c2ccc3c(N)ncnn23)OC(CO)C(O)C1O (stereo not shown) [compound 441524]
[1]; individual animals F0201-F0203
  Cl_obs: 12 mL/min/kg and 17.3 mL/min/kg
  AUC(0-t): 82 µM·h
  clearance: 13.9 mL/min/kg
  Cmax: 62.4 µM
[1]; Mean
  AUC(0-t): 81.1 µM·h
  clearance: 14.4 mL/min/kg
  Cmax: 54.2 µM

## CC(C)C(=O)OCC1OC(C#N)(c2ccc3c(N)ncnn23)C(OC(=O)C(C)C)C1OC(=O)C(C)C (stereo not shown) [GS-62-1763]
SARS-CoV-2 WA1/2020 [2]; Row 1 (time)
  Transform of Nasal lavage RNA copies/uL, Mean 2 (treated group mean): 0
  Transform of Nasal lavage RNA copies/uL, Mean Diff. (Vehicle - treated): 0
SARS-CoV-2 WA1/2020 [2]; Row 2 (time)
  Transform of Nasal lavage RNA copies/uL, Mean 2 (treated group mean): 3.525
  Transform of Nasal lavage RNA copies/uL, Mean Diff. (Vehicle - treated): 1.479
SARS-CoV-2 WA1/2020 [2]; Row 3 (time)
  Transform of Nasal lavage RNA copies/uL, Mean 2 (treated group mean): 3.436
  Transform of Nasal lavage RNA copies/uL, Mean Diff. (Vehicle - treated): 2.713
SARS-CoV-2 WA1/2020 [2]; Row 4 (time)
  Transform of Nasal lavage RNA copies/uL, Mean 2 (treated group mean): 3.353
  Transform of Nasal lavage RNA copies/uL, Mean Diff. (Vehicle - treated): 2.648
SARS-CoV-2 WA1/2020 [2]; Row 5 (time)
  Transform of Nasal lavage RNA copies/uL, Mean 2 (treated group mean): 3.502
  Transform of Nasal lavage RNA copies/uL, Mean Diff. (Vehicle - treated): 2.475
[3]; Row 1 (time)
  Bodyweight, Mean 2 (treated group mean): 100
  Bodyweight, Mean Diff. (Vehicle - treated): 0
  Temperature, Mean 2 (treated group mean): 38.58
  Temperature, Mean Diff. (Vehicle - treated): -0.25
[3]; Row 2 (time)
  Bodyweight, Mean 2 (treated group mean): 102.1
  Bodyweight, Mean Diff. (Vehicle - treated): -0.8462
  Temperature, Mean 2 (treated group mean): 38.45
  Temperature, Mean Diff. (Vehicle - treated): 0.275
[3]; Row 3 (time)
  Bodyweight, Mean 2 (treated group mean): 104.7
  Bodyweight, Mean Diff. (Vehicle - treated): -2.64
  Temperature, Mean 2 (treated group mean): 38.68
  Temperature, Mean Diff. (Vehicle - treated): 0.675
[3]; Row 4 (time)
  Bodyweight, Mean 2 (treated group mean): 105.7
  Bodyweight, Mean Diff. (Vehicle - treated): -3.357
  Temperature, Mean 2 (treated group mean): 38.4
  Temperature, Mean Diff. (Vehicle - treated): 0.85
[3]; Row 5 (time)
  Bodyweight, Mean 2 (treated group mean): 105.5
  Bodyweight, Mean Diff. (Vehicle - treated): -2.899
  Temperature, Mean 2 (treated group mean): 38.33
  Temperature, Mean Diff. (Vehicle - treated): 0.6

## CC(C)C(=O)OC[C@H]1O[C@@H](n2ccc(NO)nc2=O)[C@H](O)[C@@H]1O [EIDD-2801/molnupiravir, reference compound]
SARS-CoV-2 WA1/2020 [4]; Day 0, 5 mg/kg, b.i.d.
  Transform of Nasal lavage titer, Mean 2 (treated group): 0.699
  Transform of Nasal lavage titer, Mean Diff. (Vehicle vs. treated): 0
SARS-CoV-2 WA1/2020 [4]; Day 0.5, 5 mg/kg, b.i.d.
  Transform of Nasal lavage titer, Mean 2 (treated group): 2.389
  Transform of Nasal lavage titer, Mean Diff. (Vehicle vs. treated): 0.206
SARS-CoV-2 WA1/2020 [4]; Day 1, 5 mg/kg, b.i.d.
  Transform of Nasal lavage titer, Mean 2 (treated group): 2.25
  Transform of Nasal lavage titer, Mean Diff. (Vehicle vs. treated): 1.457
SARS-CoV-2 WA1/2020 [4]; Day 1.5, 5 mg/kg, b.i.d.
  Transform of Nasal lavage titer, Mean 2 (treated group): 2.025
  Transform of Nasal lavage titer, Mean Diff. (Vehicle vs. treated): 2.631
SARS-CoV-2 WA1/2020 [4]; Day 2, 5 mg/kg, b.i.d.
  Transform of Nasal lavage titer, Mean 2 (treated group): 1.683
  Transform of Nasal lavage titer, Mean Diff. (Vehicle vs. treated): 2.587
SARS-CoV-2 WA1/2020 [4]; Day 2.5, 5 mg/kg, b.i.d.
  Transform of Nasal lavage titer, Mean 2 (treated group): 2.004
  Transform of Nasal lavage titer, Mean Diff. (Vehicle vs. treated): 2.196
SARS-CoV-2 WA1/2020 [4]; Day 3, 5 mg/kg, b.i.d.
  Transform of Nasal lavage titer, Mean 2 (treated group): 1.551
  Transform of Nasal lavage titer, Mean Diff. (Vehicle vs. treated): 2.25
SARS-CoV-2 WA1/2020 [4]; Day 3.5, 5 mg/kg, b.i.d.
  Transform of Nasal lavage titer, Mean 2 (treated group): 1.802
  Transform of Nasal lavage titer, Mean Diff. (Vehicle vs. treated): 2.074
SARS-CoV-2 WA1/2020 [4]; Day 4, 5 mg/kg, b.i.d.
  Transform of Nasal lavage titer, Mean 2 (treated group): 1.119
  Transform of Nasal lavage titer, Mean Diff. (Vehicle vs. treated): 2.869
SARS-CoV-2 WA1/2020 [4]; Fig 3c, 5 mg/kg, b.i.d.
  Transform of Nasal Turbinate titer, Mean 2 (treated group): 2.801
  Transform of Nasal Turbinate titer, Mean Diff. (Vehicle vs. treated): 3.122
SARS-CoV-2 WA1/2020 [4]; Row 1 (time)
  Transform of Nasal Lavage RNA copies, Mean 2 (treated group): 0
  Transform of Nasal Lavage RNA copies, Mean Diff. (Vehicle vs. treated): 0
SARS-CoV-2 WA1/2020 [4]; Row 2 (time)
  Transform of Nasal Lavage RNA copies, Mean 2 (treated group): 4.936
  Transform of Nasal Lavage RNA copies, Mean Diff. (Vehicle vs. treated): 0.6755
SARS-CoV-2 WA1/2020 [4]; Row 3 (time)
  Transform of Nasal Lavage RNA copies, Mean 2 (treated group): 4.762
  Transform of Nasal Lavage RNA copies, Mean Diff. (Vehicle vs. treated): 1.379
SARS-CoV-2 WA1/2020 [4]; Row 4 (time)
  Transform of Nasal Lavage RNA copies, Mean 2 (treated group): 4.913
  Transform of Nasal Lavage RNA copies, Mean Diff. (Vehicle vs. treated): 0.7124
SARS-CoV-2 WA1/2020 [4]; Row 5 (time)
  Transform of Nasal Lavage RNA copies, Mean 2 (treated group): 4.419
  Transform of Nasal Lavage RNA copies, Mean Diff. (Vehicle vs. treated): 1.314
SARS-CoV-2 WA1/2020 [4]; in vivo
  viral RNA copies in nasal lavages and turbinates vs vehicle: statistically significant mean reduction
  virus burden in the turbinates: approached the limit of detection
  virus shedding in nasal lavages: near-detection level
[3]; Row 1 (time)
  Bodyweight, Mean 2 (treated group): 100
  Bodyweight, Mean Diff. (Vehicle vs. treated): 0
  Temperature, Mean 2 (treated group): 38.55
  Temperature, Mean Diff. (Vehicle vs. treated): 0.6
[3]; Row 2 (time)
  Bodyweight, Mean 2 (treated group): 104
  Bodyweight, Mean Diff. (Vehicle vs. treated): -3.257
  Temperature, Mean 2 (treated group): 38.7
  Temperature, Mean Diff. (Vehicle vs. treated): -0.025
[3]; Row 3 (time)
  Bodyweight, Mean 2 (treated group): 103.5
  Bodyweight, Mean Diff. (Vehicle vs. treated): -2.179
  Temperature, Mean 2 (treated group): 38.58
  Temperature, Mean Diff. (Vehicle vs. treated): 0.1
[3]; Row 4 (time)
  Bodyweight, Mean 2 (treated group): 103.9
  Bodyweight, Mean Diff. (Vehicle vs. treated): -1.728
  Temperature, Mean 2 (treated group): 38.6
  Temperature, Mean Diff. (Vehicle vs. treated): 0.05
[3]; Row 5 (time)
  Bodyweight, Mean 2 (treated group): 105.6
  Bodyweight, Mean Diff. (Vehicle vs. treated): -3.149
  Temperature, Mean 2 (treated group): 38.53
  Temperature, Mean Diff. (Vehicle vs. treated): 0.05
[3]; in vivo
  Body temperature (Fig 3D): 39.3 and 38.7 and 38.2 and 38.6 and 38.9 and 38.4 and 37.8
